Reference: ChEMBL document CHEMBL3885861, “Open TG-GATES”

Organism: Rattus norvegicus
Experiment: Open TG-GATES - Regimen: Single
Type: toxicity, organism-based, Sprague-Dawley
Parameters: regimen Single, gender Male, age 6 weeks
Conditions: in vivo, po, route gavage; for APTT / Bas / Eos / Fbg / Hb / Ht / Lym / MCH / MCHC / MCV / Mono / Neu / PT / Plat / RBC / Ret / WBC: tissue Blood; for KIDNEY_L / KIDNEY_R / KIDNEY_TOTAL: tissue Kidney; for LIVER: tissue Liver; for A/G / ALP / ALT / AST / BUN / CRE / Ca / Cl / DBIL / GLC / IP / K / LDH / Na / PL / RALB / TBIL / TC / TG / TP / gamma-GTP: tissue Plasma
[1] = 300 mg/kg, 3 h, dose level Middle
[2] = 300 mg/kg, 6 h, dose level Middle
[3] = 300 mg/kg, 9 h, dose level Middle
[4] = 300 mg/kg, 24 h, dose level Middle
[5] = 1000 mg/kg, 3 h, dose level High
[6] = 1000 mg/kg, 6 h, dose level High
[7] = 1000 mg/kg, 9 h, dose level High
[8] = 1000 mg/kg, 24 h, dose level High

## COc1ccc(Cl)cc1C(=O)NCCc1ccc(S(=O)(=O)NC(=O)NC2CCCCC2)cc1 [GLYBURIDE]
[1]
  TERMINAL_BW: 217.4 g
  APTT: 18.5 s
  Bas: 0%
  Eos: 1%
  Fbg: 239 mg/dL
  Hb: 13.3 g/dL
  Ht: 40.4%
  Lym: 72%
  MCH: 20.3 pg
  MCHC: 32.9%
  MCV: 61.7 fL
  Mono: 2.6%
  Neu: 23.8%
  PT: 12.6 s
  Plat: 139.4 x10_4/uL
  RBC: 655.2 x10_4/ul
  Ret: 8.6%
  WBC: 79 x10_2/uL
  KIDNEY_L: 1 g
  KIDNEY_R: 1 g
  KIDNEY_TOTAL: 1.9 g
  LIVER: 9.7 g
  A/G: 1.5
  ALP: 1040 IU/L
  ALT: 46.4 IU/L
  AST: 70.8 IU/L
  BUN: 12.2 mg/dL
  CRE: 0.3 mg/dL
  Ca: 10.8 mg/dL
  Cl: 103.6 meq/L
  DBIL: 0.1 mg/dL
  GLC: 136.4 mg/dL
  IP: 8.7 mg/dL
  K: 3.7 meq/L
  LDH: 143.8 IU/L
  Na: 141.2 meq/L
  PL: 165.8 mg/dL
  RALB: 3.5 g/dL
  TBIL: 0.2 mg/dL
  TC: 82.4 mg/dL
  TG: 88 mg/dL
  TP: 5.7 g/dL
  gamma-GTP: 1 IU/L
[2]
  TERMINAL_BW: 216.4 g
  APTT: 18.7 s
  Bas: 0%
  Eos: 0.8%
  Fbg: 215.8 mg/dL
  Hb: 13.4 g/dL
  Ht: 41%
  Lym: 74.4%
  MCH: 20.7 pg
  MCHC: 32.6%
  MCV: 63.6 fL
  Mono: 3%
  Neu: 21%
  PT: 12.9 s
  Plat: 123.3 x10_4/uL
  RBC: 645.6 x10_4/ul
  Ret: 8.3%
  WBC: 114.4 x10_2/uL
  KIDNEY_L: 1 g
  KIDNEY_R: 0.9 g
  KIDNEY_TOTAL: 1.9 g
  LIVER: 9.6 g
  A/G: 1.6
  ALP: 903.6 IU/L
  ALT: 33.6 IU/L
  AST: 62.2 IU/L
  BUN: 11.8 mg/dL
  CRE: 0.3 mg/dL
  Ca: 10.8 mg/dL
  Cl: 103.6 meq/L
  DBIL: 0.1 mg/dL
  GLC: 161.4 mg/dL
  IP: 9 mg/dL
  K: 3.8 meq/L
  LDH: 134.8 IU/L
  Na: 140.8 meq/L
  PL: 139.2 mg/dL
  RALB: 3.4 g/dL
  TBIL: 0.2 mg/dL
  TC: 72.4 mg/dL
  TG: 69.4 mg/dL
  TP: 5.7 g/dL
  gamma-GTP: 0.8 IU/L
[3]
  TERMINAL_BW: 213.5 g
  APTT: 19.3 s
  Bas: 0%
  Eos: 1%
  Fbg: 234.8 mg/dL
  Hb: 13.4 g/dL
  Ht: 41%
  Lym: 67.8%
  MCH: 20.7 pg
  MCHC: 32.8%
  MCV: 63.2 fL
  Mono: 3%
  Neu: 27.4%
  PT: 12.6 s
  Plat: 119.4 x10_4/uL
  RBC: 648.6 x10_4/ul
  Ret: 7.9%
  WBC: 119.6 x10_2/uL
  KIDNEY_L: 0.9 g
  KIDNEY_R: 1 g
  KIDNEY_TOTAL: 1.9 g
  LIVER: 9.4 g
  A/G: 1.5
  ALP: 926.6 IU/L
  ALT: 35.8 IU/L
  AST: 65.2 IU/L
  BUN: 12.2 mg/dL
  CRE: 0.3 mg/dL
  Ca: 10.6 mg/dL
  Cl: 102.8 meq/L
  DBIL: 0.086 mg/dL
  GLC: 148.4 mg/dL
  IP: 10.2 mg/dL
  K: 3.6 meq/L
  LDH: 133.6 IU/L
  Na: 141.6 meq/L
  PL: 149.2 mg/dL
  RALB: 3.5 g/dL
  TBIL: 0.1 mg/dL
  TC: 76.2 mg/dL
  TG: 58.6 mg/dL
  TP: 5.8 g/dL
  gamma-GTP: 1.8 IU/L
[4]
  TERMINAL_BW: 225 g
  APTT: 18.1 s
  Bas: 0.2%
  Eos: 1%
  Fbg: 220.2 mg/dL
  Hb: 12.9 g/dL
  Ht: 37.9%
  Lym: 82.6%
  MCH: 21.5 pg
  MCHC: 33.9%
  MCV: 63.5 fL
  Mono: 1.8%
  Neu: 14%
  PT: 12.5 s
  Plat: 119.5 x10_4/uL
  RBC: 597.4 x10_4/ul
  Ret: 6.6%
  WBC: 91.9 x10_2/uL
  KIDNEY_L: 1 g
  KIDNEY_R: 1 g
  KIDNEY_TOTAL: 2 g
  LIVER: 10.4 g
  A/G: 1.7
  ALP: 931.4 IU/L
  ALT: 36.2 IU/L
  AST: 65 IU/L
  BUN: 15.8 mg/dL
  CRE: 0.4 mg/dL
  Ca: 10.7 mg/dL
  Cl: 102.4 meq/L
  DBIL: 0.088 mg/dL
  GLC: 202 mg/dL
  IP: 8.3 mg/dL
  K: 3.5 meq/L
  LDH: 182.2 IU/L
  Na: 141.8 meq/L
  PL: 144.4 mg/dL
  RALB: 3.4 g/dL
  TBIL: 0.1 mg/dL
  TC: 79 mg/dL
  TG: 62.6 mg/dL
  TP: 5.4 g/dL
  gamma-GTP: 1.4 IU/L
[5]
  TERMINAL_BW: 216.5 g
  APTT: 18.9 s
  Bas: 0%
  Eos: 1%
  Fbg: 226.2 mg/dL
  Hb: 13.2 g/dL
  Ht: 40.8%
  Lym: 69.2%
  MCH: 20.3 pg
  MCHC: 32.5%
  MCV: 62.6 fL
  Mono: 4%
  Neu: 25%
  PT: 12.6 s
  Plat: 118.1 x10_4/uL
  RBC: 651.8 x10_4/ul
  Ret: 7.9%
  WBC: 75.5 x10_2/uL
  KIDNEY_L: 0.9 g
  KIDNEY_R: 1 g
  KIDNEY_TOTAL: 1.9 g
  LIVER: 9.5 g
  A/G: 1.6
  ALP: 1086.8 IU/L
  ALT: 43.2 IU/L
  AST: 67.2 IU/L
  BUN: 13.2 mg/dL
  CRE: 0.3 mg/dL
  Ca: 10.7 mg/dL
  Cl: 104.4 meq/L
  DBIL: 0.2 mg/dL
  GLC: 125.4 mg/dL
  IP: 7.8 mg/dL
  K: 3.7 meq/L
  LDH: 172.8 IU/L
  Na: 141.8 meq/L
  PL: 178.6 mg/dL
  RALB: 3.4 g/dL
  TBIL: 0.2 mg/dL
  TC: 85.2 mg/dL
  TG: 123 mg/dL
  TP: 5.5 g/dL
  gamma-GTP: 1.8 IU/L
[6]
  TERMINAL_BW: 217.2 g
  APTT: 19.4 s
  Bas: 0%
  Eos: 0.8%
  Fbg: 240.8 mg/dL
  Hb: 13.6 g/dL
  Ht: 41.3%
  Lym: 79.4%
  MCH: 20.7 pg
  MCHC: 32.9%
  MCV: 62.9 fL
  Mono: 2.8%
  Neu: 16.2%
  PT: 12.6 s
  Plat: 128.9 x10_4/uL
  RBC: 657 x10_4/ul
  Ret: 8.2%
  WBC: 91.7 x10_2/uL
  KIDNEY_L: 1 g
  KIDNEY_R: 1 g
  KIDNEY_TOTAL: 1.9 g
  LIVER: 9.7 g
  A/G: 1.6
  ALP: 948.2 IU/L
  ALT: 38.4 IU/L
  AST: 65.4 IU/L
  BUN: 12.4 mg/dL
  CRE: 0.4 mg/dL
  Ca: 10.6 mg/dL
  Cl: 104.2 meq/L
  DBIL: 0.1 mg/dL
  GLC: 155.8 mg/dL
  IP: 8.7 mg/dL
  K: 3.6 meq/L
  LDH: 169.2 IU/L
  Na: 141.8 meq/L
  PL: 154 mg/dL
  RALB: 3.5 g/dL
  TBIL: 0.2 mg/dL
  TC: 82.4 mg/dL
  TG: 86.4 mg/dL
  TP: 5.7 g/dL
  gamma-GTP: 1.6 IU/L
[7]
  TERMINAL_BW: 211.6 g
  APTT: 18.9 s
  Bas: 0%
  Eos: 1%
  Fbg: 228 mg/dL
  Hb: 13.3 g/dL
  Ht: 40.7%
  Lym: 76%
  MCH: 20.4 pg
  MCHC: 32.6%
  MCV: 62.5 fL
  Mono: 2.8%
  Neu: 19.6%
  PT: 12.9 s
  Plat: 115.6 x10_4/uL
  RBC: 651.2 x10_4/ul
  Ret: 7.8%
  WBC: 83.2 x10_2/uL
  KIDNEY_L: 0.9 g
  KIDNEY_R: 0.9 g
  KIDNEY_TOTAL: 1.8 g
  LIVER: 8.7 g
  A/G: 1.7
  ALP: 1050.6 IU/L
  ALT: 35.4 IU/L
  AST: 65.2 IU/L
  BUN: 12.8 mg/dL
  CRE: 0.4 mg/dL
  Ca: 10.7 mg/dL
  Cl: 103.8 meq/L
  DBIL: 0.1 mg/dL
  GLC: 139 mg/dL
  IP: 9.5 mg/dL
  K: 3.5 meq/L
  LDH: 168.2 IU/L
  Na: 142.2 meq/L
  PL: 141 mg/dL
  RALB: 3.5 g/dL
  TBIL: 0.2 mg/dL
  TC: 70.8 mg/dL
  TG: 64.2 mg/dL
  TP: 5.7 g/dL
  gamma-GTP: 0.6 IU/L
[8]
  TERMINAL_BW: 226 g
  APTT: 18.8 s
  Bas: 0.2%
  Eos: 1%
  Fbg: 215.2 mg/dL
  Hb: 13 g/dL
  Ht: 38.3%
  Lym: 77.2%
  MCH: 21.6 pg
  MCHC: 33.9%
  MCV: 63.9 fL
  Mono: 2.8%
  Neu: 18.6%
  PT: 12.8 s
  Plat: 126.5 x10_4/uL
  RBC: 600.8 x10_4/ul
  Ret: 6.8%
  WBC: 87.8 x10_2/uL
  KIDNEY_L: 1 g
  KIDNEY_R: 1 g
  KIDNEY_TOTAL: 1.9 g
  LIVER: 10.1 g
  A/G: 1.7
  ALP: 923.4 IU/L
  ALT: 35.6 IU/L
  AST: 69.2 IU/L
  BUN: 16.2 mg/dL
  CRE: 0.3 mg/dL
  Ca: 10.7 mg/dL
  Cl: 103.4 meq/L
  DBIL: 0.1 mg/dL
  GLC: 195 mg/dL
  IP: 7.7 mg/dL
  K: 3.4 meq/L
  LDH: 218.2 IU/L
  Na: 142.6 meq/L
  PL: 143.6 mg/dL
  RALB: 3.5 g/dL
  TBIL: 0.2 mg/dL
  TC: 75.4 mg/dL
  TG: 74 mg/dL
  TP: 5.5 g/dL
  gamma-GTP: 1.4 IU/L
